This note sets out measurements from ChEMBL document CHEMBL4190165 (Medchemcomm, 2016).

Assay [1] is described as follows: Binding affinity to yeast Hsp90 by isothermal titration calorimetric method. Further details: species or system Saccharomyces cerevisiae.
The nature of assay [2]: Inhibition of Saccharomyces cerevisiae PP30 HSP82 expressed in Escherichia coli BL21(DE3)pLysS by PK/LDH coupled spectrophotometric assay.

The structures appear in SMILES notation.

In the case of `COC1=C2C[C@@H](C)C[C@H](OC)[C@H](O)[C@@H](C)/C=C(\C)[C@H](OC(N)=O)[C@@H](OC)/C=C\C=C(/C)C(=O)NC(=CC1=O)C2=O` [GELDANAMYCIN], in assay [1], the Kd came to 1200 nM. In assay [2], this compound registered an IC50 of 1000 to 5000 nM.
For `C[C@@H]1C[C@H]2O[C@@H]2/C=C\C=C\C(=O)Cc2c(Cl)c(O)cc(O)c2C(=O)O1` [RADICICOL] the same measures were 19 nM and 20 to 23 nM.

Broadly, the Kd is the free concentration of one partner at which half of the binding sites on the other are occupied at equilibrium, for simple one-to-one binding. A word on the IC50: it is the point on the concentration scale where inhibition reaches its midpoint.
